Columns and labels:
[1] = tested on: Culex quinquefasciatus mosquito; assay: USDA Petri Dish Method, 3 min exposure to dipped fiberglass window screen; type: in vivo; settings: Table 29, aqueous deltamethrin/adjuvant
Description: MATERIALS AND METHODS: Aqueous solutions of 1% deltamethrin with and without adjuvant were prepared using product sold under the tradename Suspend® SC. […] Pre-cut fiberglass screen (5″×5″, or 161.3 cm^2) were dipped in each treatment solution and excessive solution was allowed to drain completely. Weight of the solution coated on the screen was then determined. The treated screen was then allowed to air-dry overnight. USDA Petri Dish Method was used as initial screening protocol. Twenty, 4-6 day old female Culex quinquefasciatus were exposed to treated window screen for 3 minutes and then moved onto a clean untreated white paper index card. Treatments were replicated a minimum of three times. Mosquito knockdown was evaluated at 3 minute intervals for the first 15 minutes and then at 5 minute intervals for the remainder of an hour. A small cotton ball soaked in sucrose solution was added on the screen top of the petri-dish as a drinking source. Mortality was evaluated at 24 hours after exposure.

[2] = tested on: bait averse/resistant German cockroach (T-164 strain); assay: Knockdown/mortality of male cockroaches under continuous exposure on treated glazed tile; type: in vivo, Blattella germanica; set-up: Average % Knockdown & Mortality after 5 hr / Average % Knockdown & Mortality after 30 min: concentration or dose not given beside the values; settings: glazed tile

| SMILES | Average % Knockdown & Mortality after 15 min ([1]; 15 min) [%] | Average % Knockdown & Mortality after 30 min ([1]; 30 min) [%] | Average % Knockdown & Mortality after 45 min ([1]; 45 min) [%] | Average % Knockdown & Mortality after 60 min ([1]; 60 min) [%] | Average % Knockdown & Mortality after 4 hr ([1]; 4 hr) [%] | Average % Knockdown & Mortality after 24 hr ([1]; 24 hr) [%] | Average % Knockdown & Mortality after 45 min ([2]; 45 min, Table 24, imidacloprid/dibutyl sebacate (DBS) in acetone, T-164 strain) [%] | Average % Knockdown & Mortality after 3 hr ([2]; 3 hr, Table 23, imidacloprid/tritylchloride in acetone, T-164 strain) [%] | Average % Knockdown & Mortality after 15 min ([2]; Table 5 (Ex. 2), continuous exposure) [%] | Average % Knockdown & Mortality after 15 min ([2]; Table 6 (Ex. 3), continuous exposure) [%] | Average % Knockdown & Mortality after 15 min ([2]; Table 9 (Ex. 6), continuous exposure) [%] | Average % Knockdown & Mortality after 15 min ([2]; Table 11 (Ex. 8), continuous exposure) [%] | Average % Knockdown & Mortality after 4 hr ([2]; Table 13 (Ex. 10), continuous exposure) [%] | Average % Knockdown & Mortality after 4 hr ([2]; Table 15 (Ex. 12), continuous exposure) [%] | Average % Knockdown & Mortality after 5 hr ([2]; Table 17 (Ex. 14), continuous exposure) [%] | Average % Knockdown & Mortality after 4 hr ([2]; Table 18 (Ex. 15), continuous exposure) [%] | Average % Knockdown & Mortality after 3 hr ([2]; Table 21 (Ex. 18), continuous exposure) [%] |
| --- | --- | --- | --- | --- | --- | --- | --- | --- | --- | --- | --- | --- | --- | --- | --- | --- | --- |
| CC1(C)[C@H](C(=O)O[C@H](C#N)c2cccc(Oc3ccccc3)c2)[C@@H]1C=C(Br)Br [deltamethrin (1%)] | 0 | 2 | 3 | 8 | 52 | 86 | – | – | – | – | – | – | – | – | – | – | – |
| O=[N+]([O-])NC1=NCCN1Cc1ccc(Cl)nc1 [imidacloprid] | – | – | – | – | – | – | 0 | 7 | 0 | 0 | 0 | 0 | 0 | 20 | 19 | 47 | 7 |
